Measurements reported in US20200277646A1, “METHOD OF DETERMINING TERPENE-BASED BIOCONTROL AGENTS FOR CANNABIS AND HEMP” (priority 2019, published 2020).

Legend:
Type in all cases: cell-based
[1] = system: mold found on a cannabis flower; assay: Terpene added to known contaminated sample during preparation of the culture plate
Text: Terpenes can inhibit the growth of mold found on a cannabis flower 840. An effective range is 1-5% with some inhibition at levels as low as 0.1% 850 of one embodiment.

[2] = system: yeast and mold species from certified reference materials; assay: Paper disc inhibition on agar plates of yeast and mold species from certified reference materials; details: paper discs, terpene only, 10% and 1% dilutions in ethanol; ethanol-only center disc
Procedure: Paper discs were added to the plates, and small volumes of terpenes diluted in ethanol were added to the discs 902. The center discs had ethanol only, while ‘1:1’ discs had terpene only 904 and 10% and 1% dilutions of terpene in ethanol were also included 910. […] Many terpenes are likely to have inhibitory effects on microbial growth 940. […] Terpenes microbial growth inhibitor samples 970 include carene, humulene, limonene, ocimene, terpineol, and terpinolene of one embodiment.

[3] = system: three mold species and one species of Enterobacteriaceae found on cannabis flowers; assay: Paper inhibition disc trials across several microbial species; details: paper inhibition discs with terpene dilutions in ethanol; EB species and three mold species
Text: The method of determining terpene-based biocontrol agents for use on cannabis and hemp include processing steps that include a. Isolate epiphytic microorganisms from cannabis ‘flower wash’ and isolate into pure cultures. b. Grow up individual fungal or bacterial broth cultures with shaking at RT until turbidity is evident; if, possible take OD600 nm reading of turbidity for each culture just prior to plating out serial dilutions onto agar plates to determine ˜CFU/ml. c. Based on CFU data from (b) above, re-inoculate fresh broth cultures for individual cultures monitoring OD600 nm to reach previous data point and make appropriate dilutions to attain complete seeding on agar petri plate. d. While allowing bacterial suspension to be absorbed into agar, prepare terpene-treated Whatman filter paper hole punches by aliquoting 25 μl of either full strength, 1:10 dilution or 1:100 dilution. Dilutions should be made into 1-15% MeOH or 1-2% castile soap. e. […] One terpene per plate at three concentrations with negative control. ii. One microbial culture seeded per plate. f. Allow plates to grow with incubation at 28° C. for overnight and photograph as well as measuring any zones of inhibition. Continue incubation for 2 more days, taking photographs and making measurements after each 24-hr period. g. Repeat steps (c) through (f) for each terpene against all microbial cultures.
These four plates show three mold species and one species of Enterobacteriaceae found on cannabis flowers 1010. One Enterobacteriaceae species sample plate and three mold species sample plates 1020. An Enterobacteriaceae Count Plate referred to herein as EB plate 1022, and mold species sample plates Mold 1 plate 1024, Mold 2 plate 1026, and Mold 3 plate 1028. The indicated colonies were picked and cultured prior to inoculation of agar petri dishes 1030. Paper inhibition discs with terpene dilutions in ethanol were applied immediately after inoculation of the agar plate as described previously 1040
The EB species and three mold species were tested for inhibition with the selected terpenes 1110. The indicated colonies were picked and cultured prior to inoculation of agar petri dishes 1120. Paper inhibition discs with terpene dilutions in ethanol were applied immediately after inoculation of the agar plate as described previously 1130. […] The results of the trials across several microbial species is continued in FIG. 11B.
There was also significant inhibition of bacterial growth by many of the terpenes 1150. Different microbial species were differentially affected by individual terpenes 1160. […]

SMILES	inhibition of mold growth ([1]; terpene added at 0.1% to known contaminated sample)	inhibition of mold growth ([1]; terpene added at 1% to known contaminated sample)	inhibition of yeast and mold growth [2]	effectiveness among terpenes tested [3]
CC1=CCC(=C(C)C)CC1 [terpinolene]	significant inhibition of mold growth	significant inhibition of mold growth	the most inhibition	–
CC(C)=CCCC(C)=CC=O [Citral, citral]	–	–	–	the most effective of terpenes tested
CC(C)=CCC/C(C)=C/CO [geraniol]	–	–	–	the most effective of terpenes tested
C=CCc1ccc(O)c(OC)c1 [eugenol]	–	–	–	the most effective of terpenes tested
C=CC(C)(O)CCC=C(C)C (stereo not shown) [linalool]	–	–	–	the most effective of terpenes tested
